Measurements as given in patent US20230159445A1, “STAT INHIBITORY COMPOUNDS AND COMPOSITIONS” (JANPIX LIMITED, priority 2020, published 2023).
Where two headings read alike, the source gives them in different places.

What was measured:
[1] = tested on: normal human fibroblast (NHF) cells; test: NHF Cell Cytotoxicity Assay (CellTiter-Blue, 72 h), off-target effects; format: cell-based; details: Homo sapiens, Fibroblast; pooled NHF cells
In short: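 Normal human fibroblasts (1×10^4/well, 10% FBS medium) were treated after 24 h with inhibitor at 0.097656-50 μM for 72 h at 37° C. Viability was read by CellTiter-Blue fluorescence (560/590 nm), normalized to DMSO control, and IC50 obtained from a variable-slope log(inhibitor)-response fit of four replicates.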

MV4-11 cells = test: MV4-11 Cell Cytotoxicity Assay (CellTiter-Blue, 72 h); format: cell-based, human; details: Homo sapiens
In short: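 Viability read-out: CellTiter-Blue, 1 h, fluorescence 560/590 nm. Preceded by 72 h exposure (37° C, 5% CO2) to twofold dilution series from 50 μM, triplicate, 0.5% DMSO vehicle, applied 24 h after plating.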

glutathione (GSH) = test: Reactivity Profiling with Glutathione (GSH), half-life by HPLC; details: 5 mM glutathione (GSH) in IMDM with 10% FBS
[2] = as above; details: 5 mM glutathione, 25° C., HPLC
[3] = MV4-11 cells, 72 h, CellTiter-Blue, read-out: IC50- MV-4-11

Structure (SMILES) | half-life at 25 μM (glutathione (GSH)) [h] | Tl/2- GSH [2] | IC50 [1] [µM] | IC50 (MV4-11 cells; MV4-11, MV-4-11 cells) [nM] | IC50 (MV4-11 cells; [3]) [nM]
CCOc1cc(C(=O)O)cc(F)c1N(Cc1cc(C2CC2)cc(C2CC2)c1)C(=O)CN(Cc1ccccc1C#N)S(=O)(=O)c1c(F)c(F)c(F)c(F)c1F [Compound 1274, 4-(2-((N-(2-cyanobenzyl)-2,3,4,5,6-pentafluorophenyl)sulfonamido)-N-(3,5-dicyclopropylbenzyl)acetamido)-3-ethoxy-5-fluorobenzoic acid] | 2.37 to 4.12 |  | 10 to 20 | 0.01 to 316 | 
CCOc1cc(C(=O)O)cc(F)c1N(Cc1cc(C2CC2)cc(C2CC2)c1)C(=O)CN(Cc1ccc(F)cc1Cl)S(=O)(=O)c1c(F)c(F)c(F)c(F)c1F [Compound 1276, 4-(2-((N-(2-chloro-4-fluorobenzyl)-2,3,4,5,6-pentafluorophenyl)sulfonamido)-N-(3,5-dicyclopropylbenzyl)acetamido)-3-ethoxy-5-fluorobenzoic acid] | 4.12 to 9.23 |  | 10 to 20 | 0.01 to 316 | 
CC(C)(C)c1cc(CN(C(=O)CN(Cc2ccc(Cl)cc2)S(=O)(=O)c2c(F)c(F)c(F)c(F)c2F)c2ccc(C(=O)O)c(O)c2)cc(C(C)(C)C)c1 [Compound 2001, 4-(2-(N-(4-chlorobenzyl)-(2,3,4,5,6-pentafluorophenyl)sulfon-amido)-N-(3,5-di-tert-butylbenzyl)acetamido)-2-hydroxybenzoic acid] |  | B (247≤B<554) |  |  | 3160 to 100000
O=C(O)c1ccc(N(Cc2ccccc2)C(=O)CN(Cc2ccc(Cl)cc2)S(=O)(=O)c2c(F)c(F)c(F)c(F)c2F)cc1O [Compound 2004, 4-(N-benzyl-2-(N-(4-chlorobenzyl)-(2,3,4,5,6-pentafluorophenyl)sulfon-amido)acetamido)-2-hydroxybenzoic acid] |  | D (0.1<D<142) |  |  | 3160 to 100000
CC(C)(C)c1cc(CN(C(=O)CN(Cc2ccccc2F)S(=O)(=O)c2c(F)c(F)c(F)c(F)c2F)c2ccc(C(=O)O)c(O)c2)cc(C(C)(C)C)n1 [Compound 2015, 4-(N-((2,6-di-tert-butylpyridin-4-yl)methyl)-2-(N-(2-fluorobenzyl)-(2,3,4,5,6-pentafluoro-phenyl)sulfonamido)acetami-do)-2-hydroxybenzoic acid] |  | C (142≤C<247) |  |  | 3160 to 100000
CC(C)(C)c1cc(CN(C(=O)CN(Cc2ccc(Cl)cc2)S(=O)(=O)c2c(F)c(F)c(F)c(F)c2F)c2ccc(C(=O)O)c(O)c2)cc(C2CCC2)c1 [Compound 2020, 4-(N-(3-(tert-butyl)-5-cyclobutylbenzyl)-2-(N-(4-chlorobenzyl)-(2,3,4,5,6-pentafluorophenyl)sulfon-amido)acetamido)-2-hydroxybenzoic acid] |  | B (247≤B<554) |  |  | 3160 to 100000

Continued, in another order:

half-life at 25 μM (glutathione (GSH)) [h] | Tl/2- GSH [2] | Structure (SMILES) | IC50 [1] [µM] | IC50 (MV4-11 cells; MV4-11, MV-4-11 cells) [nM] | IC50 (MV4-11 cells; [3]) [nM]
0.00167 to 2.37 |  | CCOc1cc(C(=O)O)ccc1N(Cc1cc(C2CC2)cc(C(C)(C)C)c1)C(=O)CN(Cc1cnccc1Cl)S(=O)(=O)c1c(F)c(F)c(F)c(F)c1F [Compound 1277, 4-(N-(3-(tert-butyl)-5-cyclopropylbenzyl)-2-((N-((4-chloropyridin-3-yl)methyl)-2,3,4,5,6-pentafluorophenyl)sulfonamido)acetamido)-3-ethoxybenzoic acid] | 0.001 to 10 | 0.01 to 316 | 
2.37 to 4.12 |  | CCOc1cc(C(=O)O)ccc1N(Cc1cc(C2CC2)cc(C2CC2)c1)C(=O)CN(Cc1ccccc1Cl)S(=O)(=O)c1c(F)c(F)c(F)c(F)c1F [Compound 1278, 4-(2-((N-(2-chlorobenzyl)-2,3,4,5,6-pentafluorophenyl)sulfonamido)-N-(3,5-dicyclopropylbenzyl)acetamido)-3-ethoxybenzoic acid] | 10 to 20 | 0.01 to 316 | 
4.12 to 9.23 |  | N#Cc1ccccc1CN(CC(=O)N(Cc1cc(C2CC2)cc(C2CC2)c1)c1ccc(C(=O)O)cc1OC1CCCC1)S(=O)(=O)c1c(F)c(F)c(F)c(F)c1F [Compound 1279, 4-(2-((N-(2-cyanobenzyl)-2,3,4,5,6-pentafluorophenyl)sulfonamido)-N-(3,5-dicyclopropylbenzyl)acetamido)-3-(cyclopentyloxy)benzoic acid] | 10 to 20 | 0.01 to 316 | 
2.37 to 4.12 |  | CC(C)Oc1cc(C(=O)O)ccc1N(Cc1cc(C2CC2)cc(C2CC2)c1)C(=O)CN(Cc1ccccc1C#N)S(=O)(=O)c1c(F)c(F)c(F)c(F)c1F [Compound 1280, 4-(2-((N-(2-cyanobenzyl)-2,3,4,5,6-pentafluorophenyl)sulfonamido)-N-(3,5-dicyclopropylbenzyl)acetamido)-3-isopropoxybenzoic acid] | 10 to 20 | 0.01 to 316 | 
2.37 to 4.12 |  | CCOc1cc(C(=O)O)ccc1N(Cc1cc(C2CC2)cc(N2CCCC2)c1)C(=O)CN(Cc1ccccc1C#N)S(=O)(=O)c1c(F)c(F)c(F)c(F)c1F [Compound 1281, 4-(2-((N-(2-cyanobenzyl)-2,3,4,5,6-pentafluorophenyl)sulfonamido)-N-(3-cyclopropyl-5-(pyrrolidin-1-yl)benzyl)acetamido)-3-ethoxybenzoic acid] | 10 to 20 | 0.01 to 316 | 
 | D (0.1<D<142) | CN(C(=O)CN(Cc1ccccc1C(F)(F)F)S(=O)(=O)c1c(F)c(F)c(F)c(F)c1F)c1ccc(C(=O)O)cc1OC1CC1 [Compound 2016, 3-cyclopropoxy-4-(N-methyl-2-(N-(2-(trifluoromethyl)benzyl)-(2,3,4,5,6-pentafluoro-phenyl)sulfonamido)acetami-do)benzoic acid] |  |  | 1000 to 3160
 | D (0.1<D<142) | CN(C(=O)CN(Cc1ccccc1C(F)(F)F)S(=O)(=O)c1c(F)c(F)c(F)c(F)c1F)c1ccc(C(=O)O)cc1N1CCOCC1 [Compound 2017, 4-(N-methyl-2-(N-(2-(trifluoromethyl)benzyl)-(2,3,4,5,6-pentafluoro-phenyl)sulfonamido)acetami-do)-3-morpholinobenzoic acid] |  |  | 1000 to 3160
